Assay results reported in US5563169A, “Tricyclic heterocyclic compound” (Sankyo Company, Limited, priority 1991, dated 1996).

tested on: acyl-CoA: cholesterol acyltransferase (ACAT); experiment: ACAT inhibiting effect in vitro (rat liver microsome, method of Ross et al.); type: biochemical; details: rat liver microsome (Sprague-Dawley) enzyme fraction, 100 μM [14C]oleoyl-CoA, 37° C., 4 minutes; stated in words only
Protocol: ACAT inhibiting activities were determined according to the improved test method in vitro reported by Ross et al. [A. C. Ross etal., J. Biol. Chem., 259, 815-819(1984)].
According to the procedure described in A. C. Ross et al., J. Biol. Chem., 257, 2453-2459(1982), rat liver microsome was prepared from a rat of Sprague-Dawley strain fasted overnight to make an enzyme fraction. To a 0.15M potassium phosphate buffer solution (pH 7.4) containing 100 μM of [14C]oleoyl-CoA, 2 mM of dithiothreitol and 80 μM of bovine serum albumin were added 60-100 μg of the microsome fraction, and a 5 μl solution of a test compound in dimethylsulfoxide (2.5% v/v) was added to the above phosphate buffer solution to make 200 μl. The mixture was warmed at 37° C. for 4 minutes and then the enzyme reaction was stopped by adding 1 ml of ethanol under stirring. To the reaction mixture were added 2 ml of hexane. After stirring, 1 ml of a hexane solution was taken out and the solvent was evaporated in a stream of nitrogen. Cholesteryl oleate resulted from the enzyme reaction was separated by thin layer chromatography through silica gel using a 85:15:1 mixture of hexane, diethyl ether and acetic acid as a developing solvent. An ACAT activity was determined by measuring radioactivity and a inhibiting rate (%) was calculated by comparing a control activity with that of the test compound at given concentrations.

| Compound | ACAT inhibiting activity |
| --- | --- |
| CCc1cccc(CC)c1NC(=O)CC1c2ccccc2Oc2ccccc21 [Example 2, N-(2,6-Diethylphenyl)-2-(9H-xanthen-9-yl)acetamide] | excellent inhibiting activity |
| CCc1cccc(CSC)c1NC(=O)CC1c2ccccc2Oc2ccccc21 [Example 3, N-(2-Ethyl-6-methylthiomethylphenyl)-2-(9H-xanthen-9-yl)acetamide] | excellent inhibiting activity |
| CCc1cccc(SC)c1NC(=O)CC1c2ccccc2Oc2ccccc21 [Example 9, N-(2-Ethyl-6-methylthiophenyl)-2-(9H-xanthen-9-yl)acetamide] | excellent inhibiting activity |
| CCc1cccc(Sc2ccccc2)c1NC(=O)CC1c2ccccc2Oc2ccccc21 [Example 11, N-(2- Ethyl-6-phenylthiophenyl)-2-(9H-xanthen-9-yl)acetamide] | excellent inhibiting activity |
| CCc1cccc(OC(C)C)c1NC(=O)CC1c2ccccc2Oc2ccccc21 [Example 25, N-(2-Ethyl-6-isopropoxyphenyl)-2-(9H-xanthen-9-yl)acetamide] | excellent inhibiting activity |

Next, values leading:

| ACAT inhibiting activity | Compound |
| --- | --- |
| excellent inhibiting activity | CC(C)c1cccc(C(C)C)c1NC(=O)CC1c2ccccc2Oc2ccccc21 [Example 1, N-[2,6-Bis (1-methylethyl)phenyl]-2-(9H-xanthen-9-yl)acetamide] |
| excellent inhibiting activity | CCc1cccc(SC(C)C)c1NC(=O)CC1c2ccccc2Oc2ccccc21 [Example 10, N-(2-Ethyl-6-isopropylthiophenyl)-2-(9H-xanthen-9-yl)acetamide] |
| excellent inhibiting activity | CC(C)c1cccc(C(C)C)c1NC(=O)C(C)C1c2ccccc2Oc2ccccc21 (stereo not drawn) [Example 16, N-[2,6-Bis(1-methylethyl)phenyl]-2-(9H-xanthen-9-yl)propanamide] |
| excellent inhibiting activity | CC(C)c1cccc(C(C)C)c1NC(=O)CC1(C)c2ccccc2Oc2ccccc21 [Example 18-B, N-[2,6-bis(1-methylethyl)phenyl]-2-(9-methyl-9H-xanthen-9-yl)acetamide] |
